# Read-outs that look alike come from different tables or passages of the source.
# Assays:
# COX = target: T1, COX (Rattus norvegicus, UniProt P00406+P05503+P05505); assay: Binding of [3H]-A2E to COX by co-precipitation; conditions: 20 min
# T1 construct: Cytochrome c oxidase was purified from rat liver mitochondria of female Wistar rats; from tissue; host or cells: rat liver mitochondria (female Wistar rats)
# Method: (§1) The quantity of protein used in each case was approximately 50 pmol. After 20 minutes of incubation in the darkness or under radiation using light, 10% (final concentration) of trichloroacetic acid was added, the precipitate was collected on Millipore filters, and the dissolved filter was examined for radioactivity.
# To investigate the hypothesis of whether a molecular interaction occurs between COX and A2E, an acid precipitation of COX was performed after the addition of A2E and radiation with light, and/or after A2E exposure in darkness (see Table IV).
# (§2) [^3H]-A2E was added to solubilized COX or other proteins. After 20 minutes of incubation in darkness (setup was wrapped in aluminum foil) or under exposure to light, 10% trichloroacetic acid (final concentration) was added, the precipitate was collected on Millipore filters, and the filters, which were dissolved in solvent, were subsequently examined for radioactivity. CL=cardiolipin (diphosphatidylglycerol, DPC); Cyt. c=cytochrome c; BSA=bovine serum albumin.
# MCF-7 cells = assay: A2E-induced apoptosis of MCF-7 cells in culture; assay type: cell-based
# Description: These advantageous properties predestine the phospholipids according to the present invention for use as a medication for treating pathological conditions of the retina, particular for treating AMD and macular degeneration.
# [1] = target: T2, solubilized cytochrome c oxidase (COX) (Rattus norvegicus, UniProt P00406+P05503+P05505); assay: Activity of solubilized cytochrome c oxidase by oxygen consumption (Clarke electrode); assay type: biochemical; conditions: for IC50: read-out: IC50 (μM) in relation to COX
# T2 construct: Cytochrome c oxidase was purified from rat liver mitochondria of female Wistar rats; from tissue; host or cells: rat liver mitochondria (female Wistar rats)
# T2 sequence (P00406 whole entry, other chains not shown): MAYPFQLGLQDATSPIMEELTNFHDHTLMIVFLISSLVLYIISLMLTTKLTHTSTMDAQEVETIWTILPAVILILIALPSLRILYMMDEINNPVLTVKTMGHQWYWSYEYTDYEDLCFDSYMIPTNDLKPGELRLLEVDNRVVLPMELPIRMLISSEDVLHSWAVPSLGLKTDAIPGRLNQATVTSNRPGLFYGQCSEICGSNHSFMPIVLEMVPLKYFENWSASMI
# T2 sequence (P05505 whole entry, other chains not shown): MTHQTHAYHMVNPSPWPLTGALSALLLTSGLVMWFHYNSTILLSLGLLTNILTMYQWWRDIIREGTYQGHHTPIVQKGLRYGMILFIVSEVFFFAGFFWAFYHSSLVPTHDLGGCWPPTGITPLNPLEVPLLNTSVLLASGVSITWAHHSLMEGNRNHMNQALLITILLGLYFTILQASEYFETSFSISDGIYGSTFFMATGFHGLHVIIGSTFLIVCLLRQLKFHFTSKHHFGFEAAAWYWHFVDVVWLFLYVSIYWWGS
# Method: Cytochrome c oxidase was purified from rat liver mitochondria of female Wistar rats as described by Frei et al. (Frei, B., Winterhalter, K. H., and Richter, C. (1985) J. Biol. Chem. 260, 7394-7401). The homogenization medium contained 210 mM mannitol, 70 mM saccharose, 10 mM tris-HCl (pH 7.4), 0.1 mM EDTA, and 0.5 mg/mL BSA. The heart mitochondria were purified using a similar method, a polytron homogenizer being used. The cytochrome c oxidase was purified according to the method described by Adez and Cascarano (Adez, I. Z., and Cascarano, J. (1977) J. Bioenerg. Biomemb. 9, 237-253). Cytochrome c oxidase solubilized using Triton X-100 was reconstituted in variously composed phospholipid vesicles of differing dimensions, a modified cholate dialysis method being used. (Niggli, V., Siegel, E., and Carafoli, E. (1982) J. Biol. Chem. 257, 2350-2356). 1 mL of a phospholipid suspension (10 mg/mL in 50 mM KCl, 10 mM HEPES-KOH (pH 7.0), 0.1 mM K^+-EDTA; buffer A) was solubilized in 0.2 mL of a 400 mM cholate solution. The purified cytochrome c oxidase (40 μg) was added to 0.4 mL of the cholate-phospholipid mixture. After an hour on ice, the sample was put into dialysis tubes and dialyzed in the cold against 1 L of buffer A (24 hours), three buffer replacements being performed. Cytochrome c oxidase from Paracoccus denitrificans was graciously provided by Dr. Bernd Ludwig, Biology Center of the University of Frankfurt am Main, Germany.
# The cytochrome c oxidase activity was determined by establishing the oxygen consumption. For this purpose, a Clarke electrode was used at 25° C. (Yellow Spring Instruments, Yellow Spring, Ohio), the measurement being performed under continuous stirring. Solubilized cytochrome c oxidase was suspended in 40 mM K^+-phosphate, 0.005 mM EDTA (pH 7.0), 0.7% Tween 20 containing 0.02 mM cytochrome c as a substrate and a mixture of ascorbate und tetramethyl-p-phenylenediamine (TMPD) (10 mM/1 mM). Reconstituted cytochrome c oxidase was measured with ascorbate/TPMD (10 mM/0.2 mM) in a medium containing 100 mM KCl, 0.01 M HEPES-KOH (pH 7.0) und 0.1 mM EDTA.
# The radiation with light was performed using a 70 watt lamp which was attached at 10 cm height over the electrode. The oxidation of lipids using peroxynitrite was achieved by suspending 20 mg DPG in 1 mL of 40 mM K^+-phosphate and 0.05 mM EDTA (pH 7.0) and mixing with 0.94 μmol peroxynitrite (original solution 94 mM in 0.1 N NaOH). Malondialdehyde was measured as an index for the lipid oxidation as already described (Klein, S. D., Walt, H., and Richter, C. (1997) Arch. Biochem. Biophys., 348, 313-319).
# The activity of the COX could be easily measured by registering the oxygen consumption of the enzyme in the presence of ascorbate and TPMD (tetramethyl-p-phenylene diamine) as an electron source to reduce cytochrome c.
# The experiment was performed in darkness (line a) and/or under the incidence of light (line b). 5 μg of catalase from beef liver with 500 μM of H2O2 was added at the positions marked with arrows. […] Two separate measurements are illustrated (lines a and b). At the positions marked by dashed arrows, 300 μg/mL of cardiolipin was added at t=210 seconds and t=950 seconds. At the position of the solid arrow, 5 μg of catalase from beef liver with 500 μM of H2O2 was added.
# The oxygen consumption of solubilized COX (2 μg/mL) was measured in the presence of various substances using a Clarke electrode (see materials and methods). […] TPP^+=tetraphenyl phosphonium ion; MPP^+=methylphenyl pyridinium ion.
# The oxygen consumption of solubilized COX (2 μg/mL) was measured in the presence of various substances using a Clarke electrode (see materials and methods).
# Myoglobin = target: T3, Myoglobin (Homo sapiens, UniProt P02144); assay: Binding of [3H]-A2E to myoglobin by co-precipitation; conditions: 20 min
# T3 sequence (P02144 1-154): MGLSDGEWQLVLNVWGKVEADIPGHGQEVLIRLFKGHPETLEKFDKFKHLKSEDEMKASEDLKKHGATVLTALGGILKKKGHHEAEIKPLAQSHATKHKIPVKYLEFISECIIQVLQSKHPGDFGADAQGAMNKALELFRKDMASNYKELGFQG
# Method: as §1, §2
# [2] = target: T2, solubilized cytochrome c oxidase (COX); assay: Activity of solubilized cytochrome c oxidase by oxygen consumption (Clarke electrode); assay type: biochemical; conditions: read-out: IC50 (A2E concentration for 50% inhibition of COX)
# BSA = BSA (Bos taurus, UniProt P02769); assay: Binding of [3H]-A2E to BSA by co-precipitation; design: species or system bovine; conditions: 20 min
# Sequence of BSA (P02769 25-607): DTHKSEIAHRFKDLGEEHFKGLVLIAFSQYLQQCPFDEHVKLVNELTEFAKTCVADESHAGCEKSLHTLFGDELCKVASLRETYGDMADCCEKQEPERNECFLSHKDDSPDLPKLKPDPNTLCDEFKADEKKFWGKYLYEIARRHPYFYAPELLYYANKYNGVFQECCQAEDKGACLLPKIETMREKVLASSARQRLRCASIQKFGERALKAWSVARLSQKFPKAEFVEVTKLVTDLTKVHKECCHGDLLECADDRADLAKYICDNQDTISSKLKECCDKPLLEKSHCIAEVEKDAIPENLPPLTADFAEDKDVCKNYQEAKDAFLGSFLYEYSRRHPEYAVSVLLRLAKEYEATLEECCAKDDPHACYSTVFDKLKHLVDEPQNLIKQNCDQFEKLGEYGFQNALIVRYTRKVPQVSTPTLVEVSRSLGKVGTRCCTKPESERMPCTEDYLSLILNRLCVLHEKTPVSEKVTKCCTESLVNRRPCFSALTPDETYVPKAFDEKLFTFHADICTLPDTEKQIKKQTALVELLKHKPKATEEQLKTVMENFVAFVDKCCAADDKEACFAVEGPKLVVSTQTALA
# Method: as §1, §2
# COX from rat hearts = target: T4, COX from rat hearts (Rattus norvegicus, UniProt P00406+P05503+P05505); assay: Reconstituted COX from rat hearts, sensitivity to A2E; assay type: biochemical
# T4 construct: The heart mitochondria were purified using a similar method, a polytron homogenizer being used; from tissue; host or cells: rat heart mitochondria
# T4 sequence (P00406 whole entry, other chains not shown): as the sequence (P00406 whole entry, other chains not shown) above
# T4 sequence (P05505 whole entry, other chains not shown): as the sequence (P05505 whole entry, other chains not shown) above
# Method: (§3) Cytochrome c oxidase was purified from rat liver mitochondria of female Wistar rats as described by Frei et al. (Frei, B., Winterhalter, K. H., and Richter, C. (1985) J. Biol. Chem. 260, 7394-7401). The homogenization medium contained 210 mM mannitol, 70 mM saccharose, 10 mM tris-HCl (pH 7.4), 0.1 mM EDTA, and 0.5 mg/mL BSA. The heart mitochondria were purified using a similar method, a polytron homogenizer being used. The cytochrome c oxidase was purified according to the method described by Adez and Cascarano (Adez, I. Z., and Cascarano, J. (1977) J. Bioenerg. Biomemb. 9, 237-253). Cytochrome c oxidase solubilized using Triton X-100 was reconstituted in variously composed phospholipid vesicles of differing dimensions, a modified cholate dialysis method being used. (Niggli, V., Siegel, E., and Carafoli, E. (1982) J. Biol. Chem. 257, 2350-2356). […]
# (§4) The cytochrome c oxidase activity was determined by establishing the oxygen consumption. […] Reconstituted cytochrome c oxidase was measured with ascorbate/TPMD (10 mM/0.2 mM) in a medium containing 100 mM KCl, 0.01 M HEPES-KOH (pH 7.0) und 0.1 mM EDTA.
# (§5) A protective effect by negatively charged phospholipids was also observed when increasing quantities of cardiolipin (see above, a negatively charged phospholipid) were added to vesicles containing PC/PE (see Table III). […]
# Cyt.c = Cyt.c (Homo sapiens, UniProt P99999); assay: Binding of [3H]-A2E to cytochrome c by co-precipitation; conditions: 20 min
# Sequence of Cyt.c (P99999 whole entry): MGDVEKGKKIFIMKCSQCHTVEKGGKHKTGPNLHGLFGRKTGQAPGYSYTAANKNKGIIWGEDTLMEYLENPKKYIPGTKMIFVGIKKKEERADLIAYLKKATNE
# Method: as §1, §2
# [3] = target: T5, COX from Paracoccus denitrificans (Paracoccus denitrificans, UniProt P08306+P98002); assay: Reconstituted COX from Paracoccus denitrificans, sensitivity to A2E; assay type: biochemical
# T5 construct: host or cells: gift from Dr. Bernd Ludwig, University of Frankfurt am Main
# T5 sequence (P08306 30-281): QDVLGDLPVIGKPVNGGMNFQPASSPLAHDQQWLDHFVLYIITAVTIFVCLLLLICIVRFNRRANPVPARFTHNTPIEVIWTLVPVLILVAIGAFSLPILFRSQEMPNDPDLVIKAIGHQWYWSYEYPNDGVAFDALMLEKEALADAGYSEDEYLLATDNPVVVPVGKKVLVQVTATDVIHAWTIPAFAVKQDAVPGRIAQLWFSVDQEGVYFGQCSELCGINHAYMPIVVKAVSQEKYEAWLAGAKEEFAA
# T5 sequence (P98002 whole entry): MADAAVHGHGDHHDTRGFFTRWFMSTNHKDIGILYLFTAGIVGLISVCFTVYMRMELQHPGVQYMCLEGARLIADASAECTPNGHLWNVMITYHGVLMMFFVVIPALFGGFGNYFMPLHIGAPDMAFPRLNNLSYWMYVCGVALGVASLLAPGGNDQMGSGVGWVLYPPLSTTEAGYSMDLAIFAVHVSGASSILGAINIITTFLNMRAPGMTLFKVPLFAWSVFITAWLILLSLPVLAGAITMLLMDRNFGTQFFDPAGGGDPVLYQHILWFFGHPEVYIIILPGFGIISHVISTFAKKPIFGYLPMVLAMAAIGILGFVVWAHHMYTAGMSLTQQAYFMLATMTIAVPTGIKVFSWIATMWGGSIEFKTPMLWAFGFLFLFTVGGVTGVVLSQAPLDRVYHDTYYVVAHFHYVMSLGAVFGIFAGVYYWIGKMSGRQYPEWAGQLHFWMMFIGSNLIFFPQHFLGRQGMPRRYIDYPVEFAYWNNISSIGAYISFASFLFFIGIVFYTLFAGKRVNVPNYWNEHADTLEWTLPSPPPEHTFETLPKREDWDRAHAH
# Method: as §3, §4, §5
# [4] = target: T6, reconstituted cytochrome c oxidase (COX) (Rattus norvegicus, UniProt P00406+P05503+P05505); assay: Activity of cytochrome c oxidase reconstituted in phospholipid vesicles, oxygen consumption in presence of A2E; assay type: biochemical; conditions: phospholipid used in the vesicles
# T6 construct: Cytochrome c oxidase was purified from rat liver mitochondria of female Wistar rats; from tissue; host or cells: rat liver mitochondria (female Wistar rats)
# T6 sequence (P00406 whole entry, other chains not shown): as the sequence (P00406 whole entry, other chains not shown) above
# T6 sequence (P05505 whole entry, other chains not shown): as the sequence (P05505 whole entry, other chains not shown) above
# Method: Cytochrome c oxidase was purified from rat liver mitochondria of female Wistar rats as described by Frei et al. (Frei, B., Winterhalter, K. H., and Richter, C. (1985) J. Biol. Chem. 260, 7394-7401). The homogenization medium contained 210 mM mannitol, 70 mM saccharose, 10 mM tris-HCl (pH 7.4), 0.1 mM EDTA, and 0.5 mg/mL BSA. […] The cytochrome c oxidase was purified according to the method described by Adez and Cascarano (Adez, I. Z., and Cascarano, J. (1977) J. Bioenerg. Biomemb. 9, 237-253). Cytochrome c oxidase solubilized using Triton X-100 was reconstituted in variously composed phospholipid vesicles of differing dimensions, a modified cholate dialysis method being used. […] 1 mL of a phospholipid suspension (10 mg/mL in 50 mM KCl, 10 mM HEPES-KOH (pH 7.0), 0.1 mM K^+-EDTA; buffer A) was solubilized in 0.2 mL of a 400 mM cholate solution. The purified cytochrome c oxidase (40 μg) was added to 0.4 mL of the cholate-phospholipid mixture. After an hour on ice, the sample was put into dialysis tubes and dialyzed in the cold against 1 L of buffer A (24 hours), three buffer replacements being performed.
# The cytochrome c oxidase activity was determined by establishing the oxygen consumption. […] Reconstituted cytochrome c oxidase was measured with ascorbate/TPMD (10 mM/0.2 mM) in a medium containing 100 mM KCl, 0.01 M HEPES-KOH (pH 7.0) und 0.1 mM EDTA. […]
# T1 sequence (P00406 whole entry, other chains not shown): as the sequence (P00406 whole entry, other chains not shown) above
# T1 sequence (P05505 whole entry, other chains not shown): as the sequence (P05505 whole entry, other chains not shown) above
compound,measurement,setting,value
"1,3 diphosphatidylglycerol [CL]",Prevention of A2E binding to COX,COX; co-precipitation,almost completely prevented
same,Cells survived,"MCF-7 cells; 60 μM A2E + CL 500 μg/mL, 5 days",95%
same,Protection from A2E-induced apoptosis,MCF-7 cells; CL 500 μg/mL,significant protective effect
same,Protective effect on COX against A2E after (pre)treatment with peroxynitrite,[1]; CL oxidised with peroxynitrite,loss of the protective properties
"CC1=C(/C=C/C(C)=C/C=C/C(C)=C/c2cc(/C=C/C=C(C)/C=C/C3=C(C)CCCC3(C)C)cc[n+]2CCO)C(C)(C)CCC1 [A2E, N-retinyl-N-retinylidene ethanolamine]",Molecules A2E/molecules protein,Myoglobin; darkness,0.0 (n = 2)
same,Molecules A2E/molecules protein,Myoglobin; exposure to light,0.0 (n = 2)
same,IC50,[2]; solubilized COX 1 μg/mL,3 µM
same,IC50,[2]; solubilized COX 4 μg/mL,20 µM
same,Molecules A2E/molecules protein,BSA; darkness,1.6 +/− 0.5 (n = 3)
same,Molecules A2E/molecules protein,BSA; exposure to light,1.6 +/− 0.5 (n = 3)
same,Sensitivity of enzyme to A2E,COX from rat hearts,sensitive
same,Molecules A2E/molecules protein,"COX; COX + CL + Cyt.c, darkness",0.7 +/− 0.9 (n = 3)
same,Molecules A2E/molecules protein,"COX; COX + CL + Cyt.c, exposure to light",3.8 +/− 2.3 (n = 4)
same,Molecules A2E/molecules protein,"COX; COX + CL, exposure to light",2.7 +/− 3.6 (n = 4)
same,Cells died off,"MCF-7 cells; 60 μM A2E, 5 days",99%
same,Induction of apoptosis,"MCF-7 cells; A2E 10, 30, 60 μM, 3 and/or 5 days",led to the cells becoming apoptotic
same,% COX inhibition,"[1]; solubilized COX 2 μg/mL, A2E always 20 μM, CL 200 μg/mL, RR 10 μM, La3+ 200 μM where added",60%
same,IC50,[1]; solubilized COX 2 μg/mL,7 µM
same,Molecules A2E/molecules protein,Cyt.c; darkness,0.0 (n = 3)
same,Molecules A2E/molecules protein,Cyt.c; exposure to light,0.0 (n = 3)
same,Sensitivity of enzyme to A2E,[3],sensitive
Cc1cc(N)c2ccccc2[n+]1CCCCCCCCCC[n+]1c(C)cc(N)c2ccccc21 [Dequalinium],IC50,[1]; solubilized COX 2 μg/mL,40 µM
"C[n+]1ccc(-c2ccccc2)cc1 [MPP^+, methylphenyl pyridinium ion]",IC50 (μM) in relation to COX,[1]; solubilized COX 2 μg/mL,No inhibition
CC1=C(/C=C/C(C)=C/C=C/C(C)=C/C=O)C(C)(C)CCC1 [Retinal],IC50,[1]; solubilized COX 2 μg/mL,200 µM
CCCCCCCCCCCCCCCCCCN [Stearylamine],IC50 (μM) in relation to COX,[1]; solubilized COX 2 μg/mL,No inhibition
"c1ccc([P+](c2ccccc2)(c2ccccc2)c2ccccc2)cc1 [TPP^+, tetraphenyl phosphonium ion]",IC50 (μM) in relation to COX,[1]; solubilized COX 2 μg/mL,No inhibition
phosphatidylinositol [PI],Protection of reconstituted COX from inhibition by A2E,[4],pronounced protective effect
